Results reported in patent US11053476B2, “Generation of cancer stem cells and use thereof” (EXOSTEM BIOTEC LTD., priority 2016, dated 2021).

What follows are compounds tested on CSCs generated from differentiated cancer cells (assay: Self-renewal of CSCs (secondary tumorspheres) generated from differentiated cancer cells, factor added to basic protocol). Conditions: added to second incubation; data not shown.
Type: cell-based
Method: (§1) In order to generate CSCs in vitro, both primary differentiated cancer cells (primary glioma cells) as well as cells from a cancer cell line (U87 cells) were obtained. Glioma cells and U87 cells were trypsinized, and washed three times with medium +10% FCS. The cells were then resuspended in medium that was brought to a pH of 6.0 and were placed on a rotator and incubated for 45-90 minutes. The cells were then incubated in medium supplemented with EGF and FGF. The cells were optionally kept in mild hypoxic conditions (2-3% oxygen) during this second incubation and were then plated on bacterial plates.
(§2) Tumorspheres formed on these plates within one week and were removed from the cells that had attached to the dish. The tumorspheres were disaggregated and the cells were re-plated at limiting dilution to generate secondary spheroids. The secondary tumorspheres were then characterized for CSC specific markers, the ability to self-renew and the ability to generate tumors that recapitulate the parental tumors.
(§3) Knowing that the basic protocol for generating CSCs (acid, EGF/FGF and two rounds of sphere generation) was successful; several modifications to the protocol were examined. […] Second, a wide range of factors were found, that when supplemented to the EGF and FGF containing media, increased the efficacy of the protocol, either by increasing the number of CSCs produced or by increasing their stemness.

**Q.** Which “efficacy in enhancing dedifferentiation” value does the source give for `CCCC(CCC)C(=O)O` [Valporic acid] here?
**A.** Its value is “effective”.

**Q.** Which “efficacy in enhancing dedifferentiation” value does the source give for “insulin: insulin, added to the second incubation” here?
**A.** Its value is “effective”.

Same assay, conditions: small molecule added to second incubation; FIG. 6A

**Q.** With `CCCCCCCCCCCCCC=CC(O)C(CO)NC(=O)CCCCC` (stereo not shown) [Ceramide C6] as the compound, how does the “effect on rate of self-renewal” value read?
**A.** Its value is “increase the rate of self-renewal”.

**Q.** With `N[C@@H]1C[C@H]1c1ccccc1` (racemic) [tranylcypromine] as the compound, how does the “effect on rate of self-renewal” value read?
**A.** The value was “increase the rate of self-renewal”.

**Q.** Which “effect on rate of self-renewal” value does the source give for `Nc1nccc2c1ncn2[C@@H]1C=C(CO)[C@@H](O)[C@H]1O` [3-deazaneplanocin A] here?
**A.** The value was “increase the rate of self-renewal”.

**Q.** `O=C(O)CCCc1ccccc1` [4-phenylbutyrate] was tested. Which “effect on rate of self-renewal” value did it give?
**A.** Its value is “increase the rate of self-renewal”.

**Q.** How did the “effect on rate of self-renewal” value turn out when `Cc1c[nH]c(-c2cnc(NCCNc3ccc(C#N)cn3)nc2-c2ccc(Cl)cc2Cl)n1` [CHIR99021] was run?
**A.** The value was “increase the rate of self-renewal”.

**Q.** `Nc1ncn([C@H]2C[C@H](O)[C@@H](CO)O2)c(=O)n1` [5-aza-2′-deoxycytidine] was tested. Which “effect on rate of self-renewal” value did it give?
**A.** The value was “increase the rate of self-renewal”.

**Q.** With `CCCCCCCCCCCCCC(=O)O[C@@H]1[C@@H](C)[C@@]2(O)[C@@H](C=C(CO)C[C@]3(O)C(=O)C(C)=C[C@@H]23)[C@@H]2C(C)(C)[C@]12OC(C)=O` [PMA, phorbol 12-myristate 13-acetate, reference compound] as the compound, how does the “effect on rate of self-renewal” value read?
**A.** Its value is “increase the rate of self-renewal”.

**Q.** For `C[C@@H](N)[C@H]1CC[C@H](C(=O)Nc2ccncc2)CC1` [Y-27632], which “effect on rate of self-renewal” value is on record?
**A.** Its value is “increase the rate of self-renewal”.

What follows are compounds tested on Sox2 (assay: Sox2 expression in generated CSCs, factor added to basic protocol). Conditions: PKC activation; FIG. 6B.
Type: cell-based
Method: as §1, §2, §3

**Q.** With “PKC alpha: protein kinase C alpha; activators or overexpression” as the compound, how does the “effect on Sox2 expression” value read?
**A.** Its value is “increase Sox2 expression”.

**Q.** What about the “effectiveness on Sox2 expression compared with PMA” value of the same compound?
**A.** The value was “more effective that PMA”.

**Q.** How did the “effect on Sox2 expression” value turn out when `CCCCCCCCCCCCCC(=O)O[C@@H]1[C@@H](C)[C@@]2(O)[C@@H](C=C(CO)C[C@]3(O)C(=O)C(C)=C[C@@H]23)[C@@H]2C(C)(C)[C@]12OC(C)=O` [PMA, phorbol 12-myristate 13-acetate, reference compound] was run?
**A.** Its value is “increase Sox2 expression”.

What follows are compounds tested on differentiated cancer cells (assay: Efficacy and penetrance of dedifferentiation with transcription and secreted factors). Conditions: expression in the cells or in their media during second incubation or tumorsphere formation.
Type: cell-based
Method: as §1, §2
Lastly, several transcription factors and secreted factors that are known to enhance stemness or cancer progression were introduced into the differentiated cells during the second incubation or during tumorsphere formation.

**Q.** Which “effect on dedifferentiation brought about by the standard protocol” value does the source give for “NANOG: transcription or secreted factor expressed in the cells or in their media” here?
**A.** Its value is “increase the efficacy and penetrance of the dedifferentiation”.

**Q.** With “LIF: transcription or secreted factor expressed in the cells or in their media” as the compound, how does the “effect on dedifferentiation brought about by the standard protocol” value read?
**A.** The value was “increase the efficacy and penetrance of the dedifferentiation”.

**Q.** For “STAT3: transcription or secreted factor expressed in the cells or in their media”, which “effect on dedifferentiation brought about by the standard protocol” value is on record?
**A.** The value was “increase the efficacy and penetrance of the dedifferentiation”.
